Drawing on patent publication US20120149691A1, “Pyrrolo [1,2-b] Pyridazine Derivatives as Janus Kinase Inhibitors” (BioCryst Pharmaceuticals, Inc., priority 2009, published 2012), this text covers melting point for 16 molecules.

The structures appear in SMILES notation.

For orientation: melting point means the temperature of the solid-liquid transition. `N#Cc1cnn2cccc2c1NCC1CCCO1` (stereo not shown) [Compound 51k, 4-((tetrahydrofuran-2-yl)methylamino)pyrrolo[1,2-b]pyridazine-3-carbonitrile]: the melting point is 101.8 °C. Turning to `NC(=O)c1cnn2cccc2c1NC1CCC(O)CC1` (stereo not shown) [Compound 51i, 4-(4-hydroxycyclohexylamino)pyrrolo[1,2-b]pyridazine-3-carboxamide], the melting point amounted to 192.2 °C. Molecule `C[C@@H]1CCCC[C@@H]1Nc1c(C(N)=O)cnn2cccc12` [Compound 18i, 4-((1S,2R)-2-methylcyclohexylamino)pyrrolo[1,2-b]pyridazine-3-carboxamide] displayed a melting point of 154.7 °C.

`NC(=O)c1cnn2cccc2c1NC1CCCCCC1` [Compound 52i, 4-(cycloheptylamino)pyrrolo[1,2-b]pyridazine-3-carboxamide] had a melting point of 279.2 °C. Regarding `N#Cc1cnn2cccc2c1Nc1ccccc1` [Compound 52e, 4-(phenylamino)pyrrolo[1,2-b]pyridazine-3-carbonitrile], the melting point was 163.5 °C.

As to `N#Cc1cnn2cccc2c1NC1(c2ccc(Cl)cc2Cl)CC1` [Compound 49k, 4-(1-(2,4-dichlorophenyl)cyclopropylamino)pyrrolo[1,2-b]pyridazine-3-carbonitrile], the melting point is 207.7 °C. Molecule `N#Cc1cnn2cccc2c1NC1CCCC1` [Compound 52b, 4-(cyclopentylamino)pyrrolo[1,2-b]pyridazine-3-carbonitrile] had a melting point of 102.9 °C. As to `NC(=O)c1cnn2cccc2c1NCC1CCCO1` (stereo not shown) [Compound 51m, 4-((tetrahydrofuran-2-yl)methylamino)pyrrolo[1,2-b]pyridazine-3-carboxamide], the melting point turned out to be 120 °C. Molecule `N#Cc1cnn2cccc2c1NC1CCCCCC1` [Compound 52h, 4-(cycloheptylamino)pyrrolo[1,2-b]pyridazine-3-carbonitrile] registered a melting point of 108 °C. For `CC1CCCCC1Nc1c(C(=O)O)cnn2cccc12` (stereo not shown) [Compound 18e, 4-(2-methylcyclohexylamino)pyrrolo[1,2-b]pyridazine-3-carboxylic acid] the value was 195.1 °C; for `COc1ccccc1C(CNc1c(C#N)cnn2cccc12)N1CCOCC1` (stereo not shown) [Compound 50b, 4-(2-(2-methoxyphenyl)-2-morpholinoethylamino)pyrrolo[1,2-b]pyridazine-3-carbonitrile], 156.9 °C; for `C[C@H]1CCCC[C@H]1Nc1c(C(N)=O)cnn2cccc12` [Compound 18g, 4-((1R,2S)-2-methylcyclohexylamino)pyrrolo[1,2-b]pyridazine-3-carboxamide], 158.6 °C. Turning to `CC(C)(CNc1c(C#N)cnn2cccc12)N1CCOCC1` [Compound 49e, 4-(2-methyl-2-morpholinopropylamino)pyrrolo[1,2-b]pyridazine-3-carbonitrile], the melting point was 178.8 °C. Take `CN(C)C(CNc1c(C#N)cnn2cccc12)c1ccco1` (stereo not shown) [Compound 49h, 4-(2-(dimethylamino)-2-(furan-2-yl)ethylamino)pyrrolo[1,2-b]pyridazine-3-carbonitrile]: the melting point stood at 106.9 °C. For `Cc1nc(C(CC(C)C)Nc2c(C#N)cnn3cccc23)sc1C` (stereo not shown) [Compound 49b, 4-(1-(4,5-Dimethylthiazol-2-yl)-3-methylbutylamino)pyrrolo[1,2-b]pyridazine-3-carbonitrile] the value was 137.9 °C; for `NC(=O)c1cnn2cccc2c1Nc1ccccc1` [Compound 52f, 4-(phenylamino)pyrrolo[1,2-b]pyridazine-3-carboxamide], 247.2 °C.
